Measured values from PMC7129073 (Clinical Microbiology and Infection, 2015).
Converted amounts (≈) assume the structure as drawn. Like-named read-outs stand apart in the source and are kept apart here.

Tests used:
[1] = system: viridans group streptococci (VGS); test: MIC; assay type: cell-based
S. pneumoniae [2] = assay type: cell-based, Streptococcus pneumoniae
S. pneumoniae (SPN) [3] = test: SENTRY Brazil, NCCLS broth microdilution; assay type: cell-based, Streptococcus pneumoniae
F. necrophorum = test: E-test, 13 clinical isolates; assay type: cell-based, Fusobacterium necrophorum; conditions: for MIC50 / MIC90: Fusobacterium necrophorum
S. pneumoniae [4] = test: Broth microdilution; assay type: cell-based, Streptococcus pneumoniae; conditions: 275 isolates
C. difficile = test: E-test, isolates from a department of surgery; assay type: cell-based, Clostridium difficile; conditions: Clostridioides difficile, read-out: MIC of high level resistant strains
S. aureus [5] = test: E-test susceptibility; assay type: cell-based, Staphylococcus aureus
[6] = system: foreign body infection Staphylococcus epidermidis strains; test: NCCLS disk diffusion; assay type: cell-based; conditions: 86 strains
S. aureus SCVs = test: Resistance of small colony variants from cystic fibrosis patients; assay type: cell-based, Staphylococcus aureus; conditions: CF patients, Frankfurt 2004
Escherichia coli = test: Vitek 2 susceptibility, urine isolates of children; assay type: cell-based
[7] = system: Salmonella serotype Enteritidis; test: Disk diffusion, food isolates Spain; assay type: cell-based; conditions: n = 96
[8] = system: Salmonella serotype Typhimurium; test: Disk diffusion, food isolates Spain; assay type: cell-based; conditions: n = 53
H. influenzae [9] = assay type: cell-based, Haemophilus influenzae
S. maltophilia = test: Susceptibility of respiratory isolates of cancer patients; assay type: cell-based, Stenotrophomonas maltophilia; conditions: 40 patients
[10] = UTI under TMP-SMX prophylaxis after renal transplantation; assay type: in vivo, human; conditions: prophylaxis for 12 months; 104 of 336 patients
[11] = system: glycopeptide intermediate Staphylococcus species (GISS); test: VITEK II, screening plate and E test, blood isolates; assay type: cell-based, coagulase-negative Staphylococci; conditions: 73 GISS strains
Acinetobacter = test: Disk diffusion; assay type: cell-based
H.influenzae = test: PROTEKT Italy, NCCLS microdilution; assay type: cell-based, Haemophilus influenzae
M. catarrhalis = test: PROTEKT Italy, NCCLS microdilution; assay type: cell-based, Moraxella catarrhalis
H. influenzae [12] = test: Disk diffusion, sputum isolates Athens 2001–2004; assay type: cell-based, Haemophilus influenzae
H. influenzae [13] = test: Broth microdilution; assay type: cell-based, Haemophilus influenzae; conditions: 267 isolates
[14] = system: Pseudomonas aeruginosa (PSA); test: Vitek 2 susceptibility, urine isolates of children; assay type: cell-based; conditions: both departments
Pseudomonas spp. = test: MIC; assay type: cell-based
B. fragilis group = test: NCCLS broth microdilution, beta-lactamase positive isolates; assay type: cell-based, Bacteroides fragilis group; conditions: 449 isolates
[15] = system: inducible Enterobacteriaceae; test: SMART 2003, intraabdominal isolates; assay type: cell-based
Enterobacteriaceae = test: SMART 2003 Europe, microdilution; assay type: cell-based; conditions: 1948 isolates
E. coli [16] = test: SMART 2003 Europe, microdilution; assay type: cell-based, Escherichia coli; conditions: 1106 isolates
Klebsiella = test: SMART 2003 Europe, microdilution; assay type: cell-based, Klebsiella spp.; conditions: 341 isolates
A. baumannii = test: Italian survey of severe infections 2003, MIC; assay type: cell-based, Acinetobacter baumannii
B.cepacia = test: Italian survey of severe infections 2003, MIC; assay type: cell-based, Burkholderia cepacia
Escherichia coli (ECO) = test: Broth microdilution; assay type: cell-based; conditions: 2001
E. faecalis = test: E-test susceptibility; assay type: cell-based, Enterococcus faecalis
E. coli [17] = test: E-test susceptibility; assay type: cell-based, Escherichia coli
K. oxytoca = test: E-test susceptibility; assay type: cell-based, Klebsiella oxytoca
Enterobacter spp = test: E-test susceptibility; assay type: cell-based
Gram-negative rods = test: Microscan MIC, blood culture isolates; assay type: cell-based
[18] = system: Coagulase Negative Staphylococci; test: E-test susceptibility; assay type: cell-based
C. jejuni ATCC 33560 = test: VetMIC broth microdilution, QC strain; assay type: cell-based; conditions: Campylobacter jejuni, ATCC33560, read-out: QC limits (MIC)
C. albicans = test: Antifungal susceptibility; assay type: cell-based, Candida albicans
C. glabrata = test: Antifungal susceptibility; assay type: cell-based, Candida glabrata
B. fragilis strains = test: E-test MIC before and after passages on metronidazole agar; assay type: cell-based; conditions: Bacteroides fragilis
Clostridium difficile = test: microbe, parasite or virus in culture; assay type: cell-based
[19] = system: Clostridium difficile (CD); test: Agar dilution MIC, CDAD isolates Montreal; assay type: cell-based; conditions: Clostridioides difficile
S. pneumoniae (SPN) [20] = test: NCCLS broth microdilution, fluoroquinolones 1999–2004; assay type: cell-based, Streptococcus pneumoniae; conditions: Streptococcus pneumoniae, read-out: MIC90 during the six years, 1999–2004
S. pneumoniae [21] = test: SELECT study, levofloxacin-treated RTIs caused by S. pneumoniae; assay type: in vivo, human
[22] = system: Streptococcus agalactiae strains P0162 and P0425; test: Microdilution; assay type: cell-based
[23] = system: Pseudomonas aeruginosa (PA); test: MIC; assay type: cell-based
[24] = system: Streptococcus pneumoniae (SPN); test: MIC; assay type: cell-based; conditions: 8378 isolates
[25] = system: Haemophilus influenzae (HI); test: MIC; assay type: cell-based; conditions: 7489 isolates
[26] = system: Moraxella catarrhalis (MC); test: MIC; assay type: cell-based; conditions: 2497 isolates
[27] = system: Streptococcus pyogenes (SPY); test: MIC; assay type: cell-based; conditions: 2522 isolates
S. pneumoniae [28] = test: PROTEKT Italy, NCCLS microdilution; assay type: cell-based, Streptococcus pneumoniae
S. pneumoniae [29] = test: MIC of invasive strains, Saint George Hospital 2001–2004; assay type: cell-based, Streptococcus pneumoniae
S. aureus [30] = test: NCCLS broth microdilution, SSTI isolates; assay type: cell-based; conditions: Staphylococcus aureus
[31] = ICU, SRGA breakpoints, tigecycline tentative S ≤2 μg/ml
[32] = 37 isolates selected as resistant to beta-lactams

CCC[C@@H]1C[C@@H](C(=O)N[C@@H]([C@H]2O[C@H](SC)[C@H](O)[C@@H](O)[C@H]2O)[C@H](C)Cl)N(C)C1 [clindamycin]
MIC50 [1]: 0.06 µg/mL (≈ 0.141 µM)
MIC90 [1]: 256 µg/mL (≈ 602 µM)
resistant (S. pneumoniae [2]): 5%
% S (S. pneumoniae (SPN) [3]; 1998): 94/- %
% S (S. pneumoniae (SPN) [3]; 1999): 95/- %
% S (S. pneumoniae (SPN) [3]; 2000): 96/- %
% S (S. pneumoniae (SPN) [3]; 2001): 95/- %
% S (S. pneumoniae (SPN) [3]; 2002): 100/- %
% S (S. pneumoniae (SPN) [3]; 2003): 98/- %
MIC range (F. necrophorum): 0.016 to 0.125 µg/mL
MIC50 (F. necrophorum): 0.032 µg/mL (≈ 0.0753 µM)
MIC90 (F. necrophorum): 0.064 µg/mL (≈ 0.151 µM)
Susceptibility (S. pneumoniae [4]): 91.3%
MIC (C. difficile): > 256 µg/mL
Susceptibility (S. aureus [5]; [31]): 99%
Susceptibility (S. aureus [5]; non-ICU): 96%
% resistant [6]: More than 30%

trimethoprim/sulfamethoxazole
resistance rate of SCV isolates (S. aureus SCVs): All SCV isolates were resistant
susceptibility rate (Escherichia coli; paediatric surgical unit (PSU)): 35%
susceptibility rate (Escherichia coli; paediatric units (PU)): 71%
resistance rate (NCCLS M100-S13) [7]: 7%
resistance rate (NCCLS M100-S13) [8]: 19%
resistant (H. influenzae [9]): 19%
Susceptible isolates (S. maltophilia): 93%
patients with UTI within 2 years after transplantation [10]: 31%
resistance rate [11]: 38,3%
resistant isolates (Acinetobacter; [32]): 59.5%
resistance (H.influenzae; year 1): 13.6%
resistance (H.influenzae; year 2): 14.1%
susceptibility rate (M. catarrhalis; year 1): 77.3%
susceptibility rate (M. catarrhalis; year 2): 81.1%
resistance rate (H. influenzae [12]; 2001–2002): 26.9%
resistance rate (H. influenzae [12]; 2003–2004): 13.4%
susceptible (H. influenzae [13]): 54.3%
Susceptibility (S. pneumoniae [4]): 46.2%

piperacillin/tazobactam
Susceptible isolates [14]: 74-100%
resistant isolates (Acinetobacter; [32]): 43.2%
susceptible strains (Pseudomonas spp.): 92%
isolates inhibited at =/< 32 mg/L (B. fragilis group): > 99%
% susceptible ([15]; A/P (N = 200)): 80%
% susceptible ([15]; EU (N = 354)): 85%
% susceptible ([15]; LA (N=113)): 78%
% susceptible ([15]; NA (N = 163)): 82%
per cent susceptible (Enterobacteriaceae): 91%
per cent susceptible (E. coli [16]): 94%
per cent susceptible (Klebsiella): 85%
resistance (A. baumannii): 13.3%
resistance (B.cepacia): 7.2%
susceptible (Escherichia coli (ECO); NAL-resistant isolates): 85.7%
susceptible (Escherichia coli (ECO); NAL-susceptible isolates): 94.2%
Susceptibility (E. faecalis; ICU, SRGA breakpoints, tigecycline tentative ≤2 μg/ml): 99%
Susceptibility (E. faecalis; non-ICU): 100%
Susceptible isolates (E. coli [17]; [31]): 98%
Susceptible isolates (E. coli [17]; non ICU): 99%
Susceptible isolates (K. oxytoca; ICU): 100%
Susceptible isolates (K. oxytoca; non ICU): 94%
Susceptible isolates (Enterobacter spp; ICU): 78%
Susceptible isolates (Enterobacter spp; non ICU): 93%
susceptible strains (n/N) (Gram-negative rods): 16/16

CO[C@H]1/C=C/O[C@@]2(C)Oc3c(C)c(O)c4c(O)c(c(/C=N/N5CCN(C)CC5)c(O)c4c3C2=O)NC(=O)/C(C)=C\C=C\[C@H](C)[C@H](O)[C@@H](C)[C@@H](O)[C@@H](C)[C@H](OC(C)=O)[C@@H]1C [Rifampicin]
Susceptibility (S. aureus [5]; [31]): 99/99%
Susceptibility (S. aureus [5]; non-ICU): 99/99%
Susceptibility ([18]; ICU): 86%
Susceptibility ([18]; non-ICU): 97%

CCN1CCN(c2cc3c(cc2F)c(=O)c(C(=O)O)cn3C2CC2)CC1 [enrofloxacin]
MIC (C. jejuni ATCC 33560): 0.25 to 0.5 µg/mL (≈ 0.696 to 1.39 µM)

CC(=O)N1CCN(c2ccc(OCC3COC(Cn4ccnc4)(c4ccc(Cl)cc4Cl)O3)cc2)CC1 (stereo not drawn) [ketokonazole]
intermediate susceptibility (C. albicans): 2%
intermediate susceptibility (C. glabrata): 22%

Cc1ncc([N+](=O)[O-])n1CCO [metronidazole]
MIC (B. fragilis strains; 10 nim-negative clinical isolates): 0.25 to 0.75 µg/mL (≈ 1.46 to 4.38 µM)
MIC (B. fragilis strains; ATCC25285, ATCC 25285, nim-negative): 0.19 µg/mL (≈ 1.11 µM)
MIC (B. fragilis strains; four nim-positive reference strains): 3 to 8 µg/mL (≈ 17.5 to 46.7 µM)
MIC (B. fragilis strains; three nim-positive clinical isolates): > 256 µg/mL
MIC (Clostridium difficile; Clostridioides difficile, read-out: MICs of selected resistant isolates): 16 to 64 µg/mL (≈ 93.5 to 374 µM)
prevalence of resistance (Clostridium difficile; authors' institution): 6%
MIC range (F. necrophorum): 0.016 to 2 µg/mL
MIC50 (F. necrophorum): 0.125 µg/mL (≈ 0.73 µM)
MIC90 (F. necrophorum): 0.5 µg/mL (≈ 2.92 µM)
MIC ([19]; read-out: median MIC, 2003–4): 2 µg/mL (≈ 11.7 µM)
MIC ([19]; read-out: median MIC, other ribotypes): 0.5 µg/mL (≈ 2.92 µM)

C[C@H]1COc2c(N3CCN(C)CC3)c(F)cc3c(=O)c(C(=O)O)cn1c23 [levofloxacin]
MIC50 [1]: 0.5 µg/mL (≈ 1.38 µM)
MIC90 [1]: 1 µg/mL (≈ 2.77 µM)
MIC90 (S. pneumoniae (SPN) [20]): 1 to 2 µg/mL (≈ 2.77 to 5.53 µM)
clinical successes (S. pneumoniae [21]; 500 mg once or twice daily, 90/100 subjects): 90%
clinical success, PNSSPs (S. pneumoniae [21]; 44/49): 89.8%
clinical success, PSSPs (S. pneumoniae [21]; 46/51): 90.2%
died due to initial infection (S. pneumoniae [21]; eight subjects): 8%
clinical failures (S. pneumoniae [21]; two subjects): 2%
MIC ([22]; strain P0162 (ParC Ser79Phe, GyrA Glu85Ala)): 8 µg/mL (≈ 22.1 µM)
MIC ([22]; strain P0425 (ParC Ser79Phe, GyrA Glu85Lys)): > 32 µg/mL
isolates with MPC ≥ 8 μg/ml [23]: 64%
MPC range ([23]; 10 billion organisms on agar): 2 to 16 µg/mL
MIC range ([23]; patients P1 and P2): 0.25 to 2 µg/mL
resistant isolates (Acinetobacter): 78.4%
MIC90 [24]: 1 ig/ml
MIC90 [25]: 0.12 ig/ml
MIC90 [26]: 0.12 ig/ml
MIC90 [27]: 1 ig/ml
% susceptible ([15]; LA (N=113)): 80%
per cent susceptible (Enterobacteriaceae): 86%
per cent susceptible (E. coli [16]): 81%
per cent susceptible (Klebsiella): 93%
susceptible (S. pneumoniae [28]; year 1: 2002): 97.3%
susceptible (S. pneumoniae [28]; year 2: 2003): 97.1%
% S (S. pneumoniae [29]): 100%
%R (S. pneumoniae [29]): 0%
Susceptibility (S. pneumoniae [4]): 99.6%
MIC50 (S. aureus [30]): 0.25 µg/mL (≈ 0.692 µM)
